pEC50, pKi: −log10 of the molar value.
Assays:
[1] = Bone calcium mobilization (serum calcium) in vitamin D-deficient rats; assay type: in vivo, Sprague-Dawley rats; conditions: 0.02% Ca diet
Method: (§1) Male, weanling Sprague-Dawley rats were placed on Diet 11 (0.47% Ca)+AEK for one week followed by Diet 11 (0.02% Ca)+AEK for 3 weeks. The rats were then switched to the same diet containing 0.47% Ca for one week followed by two weeks on the same diet containing 0.02% Ca. Dose administration began during the last week on 0.02% calcium diet. Four consecutive ip doses were given approximately 24 hours apart. Twenty-four hours after the last dose, blood was collected from the severed neck and the concentration of serum calcium determined by atomic absorption spectrometry as a measure of bone calcium mobilization. The first 10 cm of the intestine was also collected for intestinal calcium transport analysis using the everted gut sac method.

[2] = system: 24-hydroxylase (24Ohase) gene promoter; assay: In vitro transcription assay (luciferase reporter) in ROS 17/2.8 (bone) cells; assay type: cell-based; conditions: ROS 17/2.8 cells, 24Ohase promoter-luciferase, 16 h; FIG. 3; read-out: EC50, transcriptional activity in bone cells
Method: Transcription activity was measured in ROS 17/2.8 (bone) cells that were stably transfected with a 24-hydroxylase (24Ohase) gene promoter upstream of a luciferase reporter gene (Arbour et al., 1998). Cells were given a range of doses. Sixteen hours after dosing the cells were harvested and luciferase activities were measured using a luminometer.
RLU=relative luciferase units.

[3] = Intestinal calcium transport, everted gut sac method, in vitamin D-deficient rats; assay type: in vivo, Sprague-Dawley rats; conditions: FIG. 6
Method: as §1

[4] = system: Human promyelocytic leukemia (HL60) cells; assay: HL-60 cell differentiation (nitro blue tetrazolium reduction); assay type: cell-based; conditions: 4 days, FIG. 2
Method: The study drugs were dissolved in ethanol and the concentrations determined using UV spectrophotometry. Serial dilutions were prepared so that a range of drug concentrations could be tested without changing the final concentration of ethanol (≦0.2%) present in the cell cultures.
Human promyelocytic leukemia (HL60) cells were grown in RPMI-1640 medium containing 10% fetal bovine serum. The cells were incubated at 37° C. in the presence of 5% CO2.
HL60 cells were plated at 1.2×10^5 cells/ml. Eighteen hours after plating, cells in duplicate were treated with drug. Four days later, the cells were harvested and a nitro blue tetrazolium reduction assay was performed (Collins et al., 1979; J. Exp. Med. 149:969-974). The percentage of differentiated cells was determined by counting a total of 200 cells and recording the number that contained intracellular black-blue formazan deposits. Verification of differentiation to monocytic cells was determined by measuring phagocytic activity (data not shown).

[5] = target: T1, full-length recombinant rat vitamin D receptor (Rattus norvegicus, UniProt P13053); assay: Vitamin D receptor competitive binding with [3H]-1,25(OH)2D3; conditions: full-length recombinant rat VDR; FIG. 1; read-out: Ki, competition with [3H]-1,25(OH)2D3 for binding to the vitamin D receptor
T1 construct: Full-length recombinant rat receptor was expressed in E. coli; histidine tag (C); made in house; host or cells: E. coli BL21 (DE3) Codon Plus RIL
T1 sequence (P13053 1-423): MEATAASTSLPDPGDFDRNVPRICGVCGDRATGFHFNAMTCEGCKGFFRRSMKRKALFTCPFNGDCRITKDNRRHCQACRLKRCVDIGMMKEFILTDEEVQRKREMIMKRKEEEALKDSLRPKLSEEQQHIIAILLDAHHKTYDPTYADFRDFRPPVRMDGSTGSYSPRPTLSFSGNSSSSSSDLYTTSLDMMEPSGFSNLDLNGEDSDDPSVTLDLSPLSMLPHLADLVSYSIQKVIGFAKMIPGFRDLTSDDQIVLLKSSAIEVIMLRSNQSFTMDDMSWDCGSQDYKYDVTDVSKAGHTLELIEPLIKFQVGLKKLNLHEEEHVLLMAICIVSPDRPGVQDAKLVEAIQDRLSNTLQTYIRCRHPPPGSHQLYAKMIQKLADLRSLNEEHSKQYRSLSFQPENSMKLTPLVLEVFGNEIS
Method: Full-length recombinant rat receptor was expressed in E. coli BL21 (DE3) Codon Plus RIL cells and purified to homogeneity using two different column chromatography systems. The first system was a nickel affinity resin that utilizes the C-terminal histidine tag on this protein. The protein that was eluted from this resin was further purified using ion exchange chromatography (S-Sepharose Fast Flow). Aliquots of the purified protein were quick frozen in liquid nitrogen and stored at −80° C. until use. For use in binding assays, the protein was diluted in TEDK50 (50 mM Tris, 1.5 mM EDTA, pH7.4, 5 mM DTT, 150 mM KCl) with 0.1% Chaps detergent. The receptor protein and ligand concentration were optimized such that no more than 20% of the added radiolabeled ligand was bound to the receptor.
Radiolabeled and unlabeled ligands were added to 100 mcl of the diluted protein at a final ethanol concentration of ≦10%, mixed and incubated overnight on ice to reach binding equilibrium. The following day, 100 mcl of hydroxylapatite slurry (50%) was added to each tube and mixed at 10-minute intervals for 30 minutes. The hydroxylapaptite was collected by centrifugation and then washed three times with Tris-EDTA buffer (50 mM Tris, 1.5 mM EDTA, pH 7.4) containing 0.5% Titron X-100. […] Total binding was determined from the tubes containing only radiolabeled ligand.

Row | pKi [5] | pEC50 ([4]; Homo sapiens, HL-60, 96 h) | Structure (SMILES) | serum calcium levels (bone calcium mobilization) ([1]; all dosages tested (FIG. 4)) | pEC50 [2] | intestinal calcium transport ([3]; 780 pmol/day ip for 4 days) | pEC50 [4] | mobilization of bone calcium (serum calcium) ([1]; 780 pmol/day ip for 4 consecutive days) | mobilization of bone calcium (serum calcium) ([1]; 2340 pmol/day ip for 4 consecutive days) | mobilization of bone calcium (serum calcium) ([1]; 7020 pmol/day ip for 4 consecutive days) | intestinal calcium transport ([3]; 2340 pmol/day ip for 4 days) | intestinal calcium transport ([3]; 7020 pmol/day ip for 4 days)
1 |  |  | C=C1/C(=C\C=C2/CCC[C@]3(C)[C@@H]([C@H](C)CCCC(C)(C)O)CC[C@@H]23)C[C@@H](O)C[C@@H]1O [1,25(OH)2D3, 1α,25-dihydroxyvitamin D3, reference compound] | increased serum calcium levels | 9.66 | promotes a significant increase | 8.21 |  |  |  |  | 
2 | 9.72 | 7.89 | C=C1[C@H](O)CC(=C/C=C2\CCC[C@]3(C)C(=C(C)C)CCC23)C[C@H]1O (stereo partly drawn) [VIT-I, 2-methylene-19-nor-1α-hydroxy-17-ene-homopregnacalciferol] |  | 8.22 | does not promote intestinal calcium transport |  | did not result in mobilization of bone calcium | without any substantial effect | without any substantial effect | does not promote intestinal calcium transport | does not promote intestinal calcium transport
